{"source": "patent US20180037568A1", "about": "“MODULATORS OF METHYL MODIFYING ENZYMES, COMPOSITIONS AND USES THEREOF” (Constellation Pharmaceuticals, Inc., priority 2015, published 2018)", "target": "EZH2 (Homo sapiens, UniProt Q15910)", "sequence (Q15910 whole entry)": "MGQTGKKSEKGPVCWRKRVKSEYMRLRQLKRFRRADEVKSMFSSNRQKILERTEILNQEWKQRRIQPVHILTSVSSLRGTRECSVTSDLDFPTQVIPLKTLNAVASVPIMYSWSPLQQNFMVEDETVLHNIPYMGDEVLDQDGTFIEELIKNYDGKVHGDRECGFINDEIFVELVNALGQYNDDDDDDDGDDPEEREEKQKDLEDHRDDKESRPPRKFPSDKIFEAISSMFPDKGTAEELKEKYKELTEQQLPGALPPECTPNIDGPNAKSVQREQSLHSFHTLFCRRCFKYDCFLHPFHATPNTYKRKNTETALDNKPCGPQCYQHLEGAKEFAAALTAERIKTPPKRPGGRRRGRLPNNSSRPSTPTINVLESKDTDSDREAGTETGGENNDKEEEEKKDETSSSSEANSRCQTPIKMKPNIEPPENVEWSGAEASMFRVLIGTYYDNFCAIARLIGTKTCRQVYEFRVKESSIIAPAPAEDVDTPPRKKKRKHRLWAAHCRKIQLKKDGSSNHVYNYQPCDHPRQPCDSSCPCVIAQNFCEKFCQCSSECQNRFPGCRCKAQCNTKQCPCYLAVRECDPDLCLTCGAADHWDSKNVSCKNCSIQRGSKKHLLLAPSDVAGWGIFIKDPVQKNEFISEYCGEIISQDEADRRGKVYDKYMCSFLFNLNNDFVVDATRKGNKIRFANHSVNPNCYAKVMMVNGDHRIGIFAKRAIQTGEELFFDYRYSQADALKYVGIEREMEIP", "sequence (O75530 whole entry partner)": "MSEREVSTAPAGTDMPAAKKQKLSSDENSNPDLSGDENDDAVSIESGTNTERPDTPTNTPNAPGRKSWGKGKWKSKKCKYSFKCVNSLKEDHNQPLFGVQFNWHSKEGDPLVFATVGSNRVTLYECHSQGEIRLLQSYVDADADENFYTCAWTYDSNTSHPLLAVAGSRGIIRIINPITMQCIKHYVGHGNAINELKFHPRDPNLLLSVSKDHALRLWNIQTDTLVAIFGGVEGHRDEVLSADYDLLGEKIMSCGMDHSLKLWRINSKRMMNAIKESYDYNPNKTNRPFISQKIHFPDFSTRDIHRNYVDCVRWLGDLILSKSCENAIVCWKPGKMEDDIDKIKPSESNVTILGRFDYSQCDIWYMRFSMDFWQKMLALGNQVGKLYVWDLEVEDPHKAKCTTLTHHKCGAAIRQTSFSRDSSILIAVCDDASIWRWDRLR", "sequence (Q15022 whole entry partner)": "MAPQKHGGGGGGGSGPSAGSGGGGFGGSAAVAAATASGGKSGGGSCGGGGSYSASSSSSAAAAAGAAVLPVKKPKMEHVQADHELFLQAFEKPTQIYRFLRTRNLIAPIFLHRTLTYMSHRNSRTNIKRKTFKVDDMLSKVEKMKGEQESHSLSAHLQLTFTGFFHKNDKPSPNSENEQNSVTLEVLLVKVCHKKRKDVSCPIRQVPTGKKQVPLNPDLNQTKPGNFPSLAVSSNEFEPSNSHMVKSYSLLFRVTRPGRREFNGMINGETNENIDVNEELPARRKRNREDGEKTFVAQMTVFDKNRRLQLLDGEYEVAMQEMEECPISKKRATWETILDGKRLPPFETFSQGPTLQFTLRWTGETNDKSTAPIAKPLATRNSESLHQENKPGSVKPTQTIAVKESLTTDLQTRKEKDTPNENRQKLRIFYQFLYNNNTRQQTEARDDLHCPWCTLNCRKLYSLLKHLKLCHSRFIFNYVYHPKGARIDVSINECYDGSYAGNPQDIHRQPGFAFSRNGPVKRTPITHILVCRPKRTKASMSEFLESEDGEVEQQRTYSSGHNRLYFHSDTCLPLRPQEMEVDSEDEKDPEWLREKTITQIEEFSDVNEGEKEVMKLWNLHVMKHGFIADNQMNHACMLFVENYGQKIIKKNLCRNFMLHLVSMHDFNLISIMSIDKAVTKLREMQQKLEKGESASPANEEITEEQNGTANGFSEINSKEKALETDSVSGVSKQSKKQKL", "assay": "EZH2 nuc BSA Brij 1.5 (IC50): rPRC2, biotinylated oligonucleosome substrate, 3H SAM FlashPlate", "format": "biochemical", "settings": "read-out: EZH2 nuc BSA Brij 1.5 (IC50); 2 nM EZH2, 0.2 μM biotinylated oligonucleosomes, 0.2 μM 3H SAM, 3.6 μM H3K27me3 peptide", "outline": "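rPRC2 (2 nM EZH2) with 0.2 μM biotinylated oligonucleosomes, 0.2 μM 3H-SAM and 3.6 μM H3K27me3 peptide in pH 8.5 Tris with Brij-35 and BSA. Compounds, 80–0.16 μM in ten 2-fold steps, pre-incubated 20 min before a 60 min reaction. SAH/EDTA quench, streptavidin FlashPlate capture, scintillation count; IC50 from a 4-parameter fit.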"}
{"smiles": "COc1cc(C)[nH]c(=O)c1CNC(=O)c1c(C)n(C(C)C2CCN(C)C(C(F)(F)F)C2)c2ccccc12", "note": "(single isomer, unassigned) [Compound 21, N-((4-methoxy-6-methyl-2-oxo-1,2-dihydropyridin-3-yl)methyl)-2-methyl-1-(1-(1-methyl-2-(trifluoromethyl)piperidin-4-yl)ethyl)-1H-indole-3-carboxamide]", "values": [{"measurement": "IC50", "value": "< 100", "unit": "nM"}]}
